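Interpolation was linear, between the two tested concentrations surrounding the appropriate level; five concentrations were tested over 48 hours in 96-well plates. Abbreviation: GI50, concentration required for 50% inhibition of growth. Definition used: TGI = concentration required for complete inhibition of growth.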 Bounds are passed on as bounds.

Some test systems named below: NCI-H226 lung; COLO 205 colon; SK-MEL-2 melanoma; CCRF-CEM leukemia; NCI-H522 lung; RXF 393 renal; SR leukemia; MALME-3M melanoma; HOP-62 NSCLC; HCC-2998 colon.
Common to all, as to assay: inhibition of tumour cell growth, NCI panel, 48 h

Take `NS(=O)(=O)c1ccc(N2N=C3c4ccccc4CC3C2c2ccc(Cl)cc2)cc1` (stereo not given): the GI50 in the experiment on NCI-H226 lung was 10.9 µM; in the experiment with COLO 205 colon, 4.99 µM; with SK-MEL-2 melanoma, 8.23 µM; in the experiment on CCRF-CEM leukemia, 6.48 µM; in the experiment on NCI-H522 lung, 8.44 µM; in the experiment with RXF 393 renal, 5.07 µM. Besides, the GI50 is 2.19 µM in the experiment with SR leukemia, 4.23 µM with MALME-3M melanoma, 21.1 µM with HOP-62 NSCLC and 10.3 µM in the experiment on HCC-2998 colon. The TGI was 38.7 µM in the experiment with NCI-H226 lung; more than 100 µM in the experiment with COLO 205 colon; 28.4 µM with SK-MEL-2 melanoma; 42.4 µM with CCRF-CEM leukemia; 28.6 µM with NCI-H522 lung; 19.7 µM in the experiment on RXF 393 renal. In addition, the TGI with SR leukemia is more than 100 µM; with MALME-3M melanoma, 19.6 µM; with HOP-62 NSCLC, 47.4 µM; in the experiment with HCC-2998 colon, 27.7 µM.

The values are drawn from PubChem BioAssay (NCI).
